PMC7076710, “Synthesis, Identification, and Structure–Activity Relationship Analysis of GATA4 and NKX2-5 Protein–Protein Interaction Modulators” (Journal of Medicinal Chemistry, 2019)
Each block holds one compound with its values, some of them ahead of it.

What was measured:
Format in all cases: cell-based
[1] = target: T1, GATA4–NKX2-5 transcriptional synergy (Mus musculus, UniProt P42582+Q08369); assay: GATA4–NKX2-5 transcriptional synergy luciferase reporter assay (3xNKE reporter, COS-1 cells); settings: for activity at 3 µM / activity at 10 µM: COS-1; for Synergy (% of control) Mean ± SD: 10 μM, COS-1 cells, 24 h
T1 construct: expressed in transfected cells; host or cells: COS-1
T1 sequence (Q08369 whole entry): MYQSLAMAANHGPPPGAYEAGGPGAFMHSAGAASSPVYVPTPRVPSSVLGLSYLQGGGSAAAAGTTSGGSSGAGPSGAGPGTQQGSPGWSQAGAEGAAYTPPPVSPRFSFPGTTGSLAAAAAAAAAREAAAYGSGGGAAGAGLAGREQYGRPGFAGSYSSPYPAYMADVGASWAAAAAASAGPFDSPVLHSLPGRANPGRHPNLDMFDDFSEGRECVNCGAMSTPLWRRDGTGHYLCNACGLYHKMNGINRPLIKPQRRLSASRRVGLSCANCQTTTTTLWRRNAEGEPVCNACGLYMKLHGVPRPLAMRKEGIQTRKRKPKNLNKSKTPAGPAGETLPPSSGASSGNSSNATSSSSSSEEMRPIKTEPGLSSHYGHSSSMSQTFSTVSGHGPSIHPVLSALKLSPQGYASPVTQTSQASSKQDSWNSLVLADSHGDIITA
T1 sequence (P42582 whole entry): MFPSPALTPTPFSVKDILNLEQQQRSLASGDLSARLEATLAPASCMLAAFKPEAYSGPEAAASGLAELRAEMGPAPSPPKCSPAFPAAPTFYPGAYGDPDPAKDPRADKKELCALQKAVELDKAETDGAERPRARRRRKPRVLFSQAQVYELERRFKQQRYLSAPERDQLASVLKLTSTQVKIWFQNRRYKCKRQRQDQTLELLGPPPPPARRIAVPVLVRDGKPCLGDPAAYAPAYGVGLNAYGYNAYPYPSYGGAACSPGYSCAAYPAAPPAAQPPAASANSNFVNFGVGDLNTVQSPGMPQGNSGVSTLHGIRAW

[2] = target: T2, GATA4 transcriptional activity (Mus musculus, UniProt Q08369); assay: GATA4 luciferase reporter assay (tandem GATA-site reporter, COS-1 cells); settings: for activity at 3 µM: COS-1; for GATA4 (% of control) Mean ± SD: 10 μM, COS-1 cells, 24 h
T2 construct: expressed in transfected cells; host or cells: COS-1
T2 sequence (Q08369 whole entry): as the sequence (Q08369 whole entry) above

COS-1 cells = assay: ATP assay (CellTiter-Glo cell viability); settings: 24-h exposure; for reduction of cell viability (ATP content): 10 μM
Excerpt: To investigate the toxicity as a potential cause of decreased or increased activity in luciferase reporter gene assays, we tested a set of 40 active compounds in the COS-1 cell line used for the luciferase assays. Concentration-dependent toxic effects were investigated using the lactate dehydrogenase (LDH) assay to detect necrosis and the 3-(4,5-dimethylthiazol-2-yl)-2,5-diphenyltetrazolium bromide (MTT) assay as a measure of cell viability. […] For the data analysis, compounds were classified as toxic (Figures 5 and 7) if they induced a >10% decrease in cell viability in the MTT assay at the concentration of 10 μM. The most toxic compounds (35a, 35d, 54, 58, and 63–65) in the MTT assay all contained a phenyl substituent in the southern part ring, while the ortho-nitrophenyl-derivative 39g and the phenyl-substituted thiophene 47t were nontoxic. Higher flexibility in the central parts of the ethers (35a, 35d) and N-acylated amines (58, 64) might contribute to their toxicity, because less rigid compounds are more likely to have affinity to various biological targets. Such interactions can cause toxicity. To confirm and validate the results from MTT assays, we tested three nontoxic (2, 47s, and 72) and three toxic (1, 35a, and 58) compounds in a cell viability assay measuring intracellular ATP content.
Figure 5 Effects of selected compounds on COS-1 cell viability. (A) Compound-induced necrosis was quantified with the LDH assay after a 24-h compound exposure. The data are presented as cytotoxicity percentage (% of maximal LDH release). (B) Cell viability was analyzed with the MTT assay after a 24-h compound exposure. (A,B) The data are means from 2–3 independent experiments with 3 replicate wells in each and are presented as % of control (vehicle-treated cells). The compounds have been grouped on the basis of the structure of the central part: a, amide; b, ether; c, N-acylated amine; d, amine; and e, imine. (C) The effects of selected compounds on cell viability as determined by ATP content after a 24-h compound exposure. The data are mean + SEM from three independent experiments and are presented as % of vehicle-treated cells.
A selected set of compounds were tested also in the ATP assay by using CellTiter-Glo Luminescent Cell Viability assay (Promega). Subculturing and treatment of COS-1 cells were otherwise performed similar to that in the MTT test, but the final volume of treatment was 200 μL per well. Doxorubicin was used as a positive control in the assay. After treatment, the plates were equilibrated at room temperature for 30 min, after which the media was removed and cells were washed with 100 μL of PBS. Next, 50 μL of fresh media and 50 μL of mixed CellTiter Glo Reagent were added to the plate. The contents of the plates were mixed for 2 min, and incubated at room temperature for 15 min. The luminescence was measured with VarioskanTM LUX Multimode Plate Reader (Thermo Fisher Scientific, Waltham, MA) using SkanItTM Software 5.0.

[3] = 3 µM, luciferase reporter activity, % of control
[4] = 3 µM, luciferase reporter activity relative to control
[5] = 10 µM, luciferase reporter activity relative to control

activity at 3 µM [1, 3]: 73.7% | activity at 3 µM [2, 3]: 92.1%
Compound: CCN(CC)c1ccc(NC(=O)c2c(-c3ccccc3)noc2C)cc1 [Compound 1, N-[4-(Diethylamino)phenyl]-5-methyl-3-phenylisoxazole-4-carboxamide]
reduction of cell viability (ATP content) (COS-1 cells): > 10%

Synergy (% of control) Mean ± SD [1]: 170 % of control | activity at 3 µM [1, 3]: 130% | activity at 10 µM ([1]; 10 µM, luciferase reporter activity, % of control): 166% | activity at 3 µM [2, 3]: 145%
Compound: Cc1onc(-c2ccccc2)c1C(=O)N(C1=NC(C)CS1)c1ccc(Cl)cc1 (centres unmarked) [Compound 2]
toxicity in the ATP assay (in words) (COS-1 cells): no toxicity

activity at 3 µM [1, 4]: 27.5% | activity at 3 µM [2, 4]: 46.9%
Compound: Cc1onc(-c2ccccc2)c1COc1ccc(C(=O)OCCC#N)cc1 [Compound 35a, 2-Cyanoethyl 4-[(5-Methyl-3-phenylisoxazol-4-yl)methoxy]benzoate]
reduction of cell viability (ATP content) (COS-1 cells): > 10%

activity at 3 µM [1, 4]: 66.9% | activity at 3 µM [2, 4]: 128%
Compound: CCN(CC)c1ccc(NC(=O)c2cnsc2)cc1 [Compound 47s]
toxicity in the ATP assay (in words) (COS-1 cells): no toxicity

activity at 10 µM [1, 5]: 22.3% | activity at 3 µM [2, 4]: 70.3%
Compound: CCC(=O)N(Cc1ccc(N(CC)CC)cc1)c1c(-c2ccccc2)noc1C [Compound 58]
reduction of cell viability (ATP content) (COS-1 cells): > 10%

effect on GATA4–NKX2-5 transcriptional synergy (in words) [1]: inhibition potency | activity at 3 µM [1, 4]: 66% | activity at 10 µM [1, 5]: 49.5% | GATA4 (% of control) Mean ± SD [2]: 40 % of control | activity at 3 µM [2, 4]: 70.5%
Compound: COc1ccc(-c2cc(NC(=O)c3ccc(C(C)(C)C)cc3)n[nH]2)cc1 [Compound 72]
toxicity in the ATP assay (in words) (COS-1 cells): no toxicity

Synergy.3µM [1, 4]: 45.37 | Synergy (% of control) Mean ± SD [1]: 24 ± 0.9 % of control | Synergy.10µM [1, 5]: 23.55 | GATA.3µM [2, 4]: 61.94 | GATA4 (% of control) Mean ± SD [2]: 68 ± 9.1 % of control | GATA.10µM [2, 5]: 68.28
Compound: N-[4-(Diethylamino)phenyl]-3-methyl-5-(4-methyl-1,2,3-thiadiazol-5-yl)isoxazole-4-carboxamide [Compound 47c]
